According to PubChem BioAssay (NCI):
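Test compounds were applied to cells in 96-well plates for 48 hours at 5 doses. TGI is the concentration that stops growth completely.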

Experiments:
Assay in all cases: NCI anticancer screen, dose series, 48 h
[1] = test system: HL-60(TB) leukemia
[2] = test system: NCI-H23 lung
[3] = test system: DMS 273 small cell lung
[4] = test system: SNB-75 CNS
[5] = test system: HCC-2998 colon
[6] = test system: TK-10 renal
[7] = test system: SF-268 CNS
[8] = test system: SK-MEL-5 melanoma
[9] = test system: DU-145 prostate
[10] = test system: SN12C renal
[11] = test system: MCF7 breast
[12] = test system: IGROV1 ovarian
[13] = test system: KM20L2 colon
[14] = test system: SW-620 colon
[15] = test system: KM12 colon
[16] = test system: M19-MEL melanoma
[17] = test system: UACC-257 melanoma
[18] = test system: LXFL 529 NSCLC
[19] = test system: CAKI-1 renal
[20] = test system: A549 NSCLC
[21] = test system: SK-MEL-28 melanoma
[22] = test system: MDA-MB-435
[23] = test system: RXF 393 renal
[24] = test system: OVCAR-5 ovarian
[25] = test system: PC-3 prostate
[26] = test system: UACC-62 melanoma
[27] = test system: BT-549 breast
[28] = test system: COLO 205 colon
[29] = test system: SF-295 CNS
[30] = test system: HOP-62 NSCLC
[31] = test system: OVCAR-8 ovarian
[32] = test system: EKVX NSCLC
[33] = test system: CCRF-CEM leukemia
[34] = test system: NCI-H522 lung
[35] = test system: OVCAR-4 ovarian
[36] = test system: XF 498 CNS
[37] = test system: RXF-631 renal
[38] = test system: HCT-15 colon
[39] = test system: HT29 colon
[40] = test system: NCI-H226 lung
[41] = test system: MALME-3M melanoma
[42] = test system: K-562 leukemia
[43] = test system: DLD-1 colon
[44] = test system: SK-OV-3 ovarian
[45] = test system: A498 renal
[46] = test system: DMS 114 small cell lung
[47] = test system: 786-0 renal
[48] = test system: T-47D breast
[49] = test system: UO-31 renal
[50] = test system: SNB-78 CNS
[51] = test system: MDA-N
[52] = test system: OVCAR-3 ovarian
[53] = test system: MOLT-4 leukemia
[54] = test system: HCT-116 colon
[55] = test system: SR leukemia
[56] = test system: NCI-H460 lung
[57] = test system: HOP-18 NSCLC
[58] = test system: SK-MEL-2 melanoma
[59] = test system: ACHN renal
[60] = test system: SNB-19 CNS
[61] = test system: SF-539 CNS
[62] = test system: RPMI-8226 leukemia
[63] = test system: U251 CNS
[64] = test system: LOX IMVI melanoma
[65] = test system: M14 melanoma
[66] = test system: HOP-92 NSCLC
[67] = test system: MDA-MB-231 breast

With `Nc1nc(-c2ccccc2)c(Cl)c(-c2cc(Cl)ccc2O)n1` the TGI [1] was greater than 100 µM, the TGI [2] was 67.2 µM and the TGI [3] was 90.9 µM. It also gave a TGI [4] of 43.9 µM, a TGI [5] greater than 100 µM and a TGI [6] of 42.6 µM. It also gave a TGI [7] greater than 83.1 µM, a TGI [8] of 59.6 µM and a TGI [9] greater than 100 µM. The TGI [10] was 87.5 µM, the TGI [11] was greater than 100 µM and the TGI [12] was 54.7 µM. It also gave a TGI [13] greater than 100 µM, a TGI [14] greater than 100 µM and a TGI [15] greater than 87.9 µM. For the same molecule, the TGI [16] was greater than 100 µM, the TGI [17] was greater than 100 µM and the TGI [18] was greater than 73.1 µM. The TGI [19] was 47.2 µM, the TGI [20] was 71 µM and the TGI [21] was greater than 100 µM. It also gave a TGI [22] greater than 100 µM, a TGI [23] of 41.9 µM and a TGI [24] greater than 100 µM. The TGI [25] was greater than 100 µM, the TGI [26] was greater than 100 µM and the TGI [27] was greater than 100 µM. For the same molecule, the TGI [28] was greater than 100 µM, the TGI [29] was greater than 94.3 µM and the TGI [30] was 20.1 µM. It also gave a TGI [31] of 33.8 µM, a TGI [32] greater than 100 µM and a TGI [33] greater than 100 µM. The TGI [34] was greater than 62.9 µM, the TGI [35] was 66.4 µM and the TGI [36] was 47.5 µM. The TGI [37] was greater than 100 µM, the TGI [38] was greater than 100 µM and the TGI [39] was greater than 100 µM. The TGI [40] was 61.3 µM, the TGI [41] was greater than 100 µM and the TGI [42] was greater than 46.4 µM. The TGI [43] was greater than 100 µM, the TGI [44] was 49.3 µM and the TGI [45] was greater than 76.5 µM. It also gave a TGI [46] of 66.6 µM, a TGI [47] of 57.8 µM and a TGI [48] of 36.4 µM. The TGI [49] was 46.6 µM, the TGI [50] was greater than 82.7 µM and the TGI [51] was greater than 100 µM. The TGI [52] was 24.2 µM, the TGI [53] was greater than 100 µM and the TGI [54] was 27.1 µM. The TGI [55] was greater than 100 µM, the TGI [56] was 99.3 µM and the TGI [57] was greater than 94.3 µM. It also gave a TGI [58] of 99.8 µM, a TGI [59] of 21.5 µM and a TGI [60] of 47 µM. It also gave a TGI [61] of 66.5 µM, a TGI [62] greater than 100 µM and a TGI [63] of 45.1 µM. The TGI [64] was greater than 59.2 µM, the TGI [65] was greater than 100 µM and the TGI [66] was greater than 97.3 µM. The TGI [67] was greater than 100 µM.
